Assay results reported in patent publication US20240374585A1, “EPITHELIAL SODIUM CHANNEL (ENAC) INHIBITOR CONJUGATES AND METHODS FOR USE THEREOF” (Lung Therapeutics, Inc., priority 2021, published 2024).
Where a SMILES comes first, the peptide text is derived from it. Where no end group is shown, it is not given here. [ ]: non-standard residue; d: D form. The star is where a group is joined. X2 = NC(=NC(=O)c1nc(Cl)c(N)nc1N)NCCCCN1C(=O)CC(*)C1=O; Hyp = O=C(O)[C@@H]1C[C@@H](O)CN1; Aib = CC(C)(N)C(=O)O; Ahx = NCCCCCC(=O)O

Key:
[1] = test system: sheep model of cystic fibrosis; test: Tracheal mucous velocity (TMV) in sheep model of cystic fibrosis; type: in vivo
Procedure: The conjugates of the present invention were tested for their ability to increase lung mucociliary clearance in a sheep model of cystic fibrosis.
The peptide conjugates of the present invention were tested in vivo using a sheep model of cystic fibrosis as described in Scott et al., Am J. Resp. Crit. Care Med., 2017; 196 (6): 734-744; and Sabater et al., PLOS ONE, 2019; 14 (11): e0224764, hereby incorporated by reference in their entirety.
Briefly, tracheal mucous velocity (TMV) was determined in sheep by insufflation of radio-opaque Teflon disks into the trachea and measuring the movement of the disks over a 1 minute period by scintigraphy.
Intubated sheep were treated with the CFTR inhibitor INH-172 by nebulization, which caused a reduction in the mucus transport rate in the trachea. Once a baseline inhibited TMV was obtained at 4 hours following CFTR inhibition, then ENaC inhibitor conjugate (Conj. 13) or control was nebulized into the sheep lung and TMV measurements were repeated hourly.

[2] = target: T1, neutrophil elastase (Homo sapiens, UniProt P08246)
T1 sequence (P08246 30-267): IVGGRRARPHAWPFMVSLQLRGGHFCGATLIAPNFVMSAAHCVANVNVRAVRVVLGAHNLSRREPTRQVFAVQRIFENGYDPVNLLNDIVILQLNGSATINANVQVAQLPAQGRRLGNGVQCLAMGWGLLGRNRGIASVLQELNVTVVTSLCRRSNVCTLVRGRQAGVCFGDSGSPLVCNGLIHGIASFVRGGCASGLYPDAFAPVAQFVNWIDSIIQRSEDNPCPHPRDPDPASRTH
Procedure: Experiments were therefore performed to determine the stability of the conjugates to protease cleavage.
The conjugates of the invention were incubated in PBS or PBS and 0.1 mg neutrophil elastase for 60 minutes at 37° C. The conjugates were then run on HPLC to determine their stability against protease cleavage.

[3] = target: T2, ENaC (Homo sapiens, UniProt P37088+P51168+P51170); test: ENaC inhibition in NHBE cell monolayers, Ussing epithelial voltage clamp (short circuit current); type: cell-based
T2 construct: Primary NHBE cells were isolated from bronchi of normal healthy patients; endogenous in cells; host or cells: primary normal human bronchial epithelial (NHBE) cells, differentiated at air-liquid interface
T2 sequence (P37088 1-669): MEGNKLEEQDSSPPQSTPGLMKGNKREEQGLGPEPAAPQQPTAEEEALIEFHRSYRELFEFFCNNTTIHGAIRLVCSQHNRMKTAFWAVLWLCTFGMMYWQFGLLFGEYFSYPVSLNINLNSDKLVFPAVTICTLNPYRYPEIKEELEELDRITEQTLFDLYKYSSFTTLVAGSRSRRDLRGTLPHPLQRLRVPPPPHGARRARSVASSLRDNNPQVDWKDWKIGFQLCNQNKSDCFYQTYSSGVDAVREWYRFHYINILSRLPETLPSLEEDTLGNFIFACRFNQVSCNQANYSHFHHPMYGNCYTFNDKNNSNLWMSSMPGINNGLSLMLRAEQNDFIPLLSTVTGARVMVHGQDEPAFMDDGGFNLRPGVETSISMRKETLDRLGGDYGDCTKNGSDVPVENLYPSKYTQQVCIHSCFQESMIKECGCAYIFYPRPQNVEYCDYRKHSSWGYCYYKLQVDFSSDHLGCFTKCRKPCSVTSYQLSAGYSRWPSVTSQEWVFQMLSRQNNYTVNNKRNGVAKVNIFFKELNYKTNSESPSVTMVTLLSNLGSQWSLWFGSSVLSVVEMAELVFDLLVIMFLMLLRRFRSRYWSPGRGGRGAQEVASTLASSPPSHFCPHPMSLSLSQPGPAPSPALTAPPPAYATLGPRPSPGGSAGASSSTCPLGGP
T2 sequence (P51168 1-640): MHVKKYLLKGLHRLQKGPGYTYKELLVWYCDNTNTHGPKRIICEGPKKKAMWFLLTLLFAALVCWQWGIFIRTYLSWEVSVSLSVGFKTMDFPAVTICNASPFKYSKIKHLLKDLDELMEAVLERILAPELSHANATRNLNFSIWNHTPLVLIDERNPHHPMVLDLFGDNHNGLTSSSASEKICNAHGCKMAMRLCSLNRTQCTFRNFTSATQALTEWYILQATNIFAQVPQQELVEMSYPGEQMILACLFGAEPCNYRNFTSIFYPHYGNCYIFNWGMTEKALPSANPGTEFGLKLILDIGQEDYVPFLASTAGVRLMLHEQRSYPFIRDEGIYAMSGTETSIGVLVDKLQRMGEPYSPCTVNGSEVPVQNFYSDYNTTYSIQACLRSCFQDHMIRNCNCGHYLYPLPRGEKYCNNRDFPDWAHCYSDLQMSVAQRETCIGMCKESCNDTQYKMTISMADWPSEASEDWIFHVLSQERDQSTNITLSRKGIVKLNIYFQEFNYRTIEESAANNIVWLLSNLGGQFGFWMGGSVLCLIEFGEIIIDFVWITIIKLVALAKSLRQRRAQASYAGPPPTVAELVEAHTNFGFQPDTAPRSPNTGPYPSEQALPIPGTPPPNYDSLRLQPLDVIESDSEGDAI
T2 sequence (P51170 1-649): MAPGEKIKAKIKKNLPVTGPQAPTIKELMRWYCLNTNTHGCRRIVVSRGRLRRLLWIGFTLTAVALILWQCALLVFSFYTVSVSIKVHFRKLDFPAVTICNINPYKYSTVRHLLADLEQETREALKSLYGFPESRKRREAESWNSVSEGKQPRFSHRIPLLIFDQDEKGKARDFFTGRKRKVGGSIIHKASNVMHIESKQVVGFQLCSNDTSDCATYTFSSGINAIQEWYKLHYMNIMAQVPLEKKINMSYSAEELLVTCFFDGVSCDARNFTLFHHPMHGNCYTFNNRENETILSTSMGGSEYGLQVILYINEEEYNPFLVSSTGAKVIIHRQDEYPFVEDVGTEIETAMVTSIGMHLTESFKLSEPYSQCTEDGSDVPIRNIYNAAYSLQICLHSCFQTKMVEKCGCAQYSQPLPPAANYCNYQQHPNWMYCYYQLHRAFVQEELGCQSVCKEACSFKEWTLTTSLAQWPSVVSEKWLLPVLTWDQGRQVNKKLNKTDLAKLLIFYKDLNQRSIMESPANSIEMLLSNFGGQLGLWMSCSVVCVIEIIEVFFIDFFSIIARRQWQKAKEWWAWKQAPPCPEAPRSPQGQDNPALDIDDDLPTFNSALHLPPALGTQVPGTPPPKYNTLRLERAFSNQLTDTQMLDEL
Procedure: The objective of this study was to measure the ability of the illustrative conjugates to modulate ion transport function of ENAC in normal human bronchial epithelial (NHBE) cell monolayers. Sodium transport function of ENAC expressed in NHBE monolayers was evaluated using an Ussing epithelial voltage clamp apparatus. See, Hirsh et al., J. Pharmacol. Exp. Ther. 2008; 325:77-88, hereby incorporated by reference in its entirety.
Primary NHBE cells were isolated from bronchi of normal healthy patients, expanded in Lonza media (BEGM™ BulletKit™), and plated on Snapwell™ filters to form an epithelium. Cells on Snapwell™ inserts were grown for at least 21 days in Vertex Differentiation media and exposed to an air-liquid interface to promote differentiation. At least one day before the assay, mucous overlaying the apical surface was removed from the inserts by incubating the apical surface for about 30 minutes with ≥200 μL of differentiation media followed by aspiration of the mucous film and media.
The NHBE cell monolayers grown on Snapwell™ filter inserts were transferred to Physiologic Instruments Ussing recording chambers (Physiologic Instruments, Inc., San Diego, CA) and superfused with HB-PS. One or more 6-channel or 8-channel Physiologic Instruments VCC MC6 or VCC MC8 epithelial voltage clamps were used in combination to record short circuit current (ISC) from up to 24 inserts simultaneously. Air was used to operate the bubble lifts to rapidly circulate solutions in each Ussing chamber half and to aerate the monolayers.
Inserts were voltage clamped at 0 m V to record the ISC. Bumetanide (20 μM) was added to the basolateral side of all inserts. Test conjugates prepared as DMSO (Sigma-Aldrich) stocks were added cumulatively and sequentially to the apical Ussing chamber halves with at least 3 minutes between each addition.
Time and volume matched additions of DMSO to the basolateral side of the test conjugate treated inserts and both sides of the vehicle treated inserts was made to maintain osmotic balance across the epithelia. Transepithelial resistance was monitored with small voltage steps. The assay was performed at 35±2° C.
ENaC current at each test conjugate concentration was calculated as the peak current change produced by each test conjugate treated insert minus the mean current change produced by the corresponding DMSO additions to time-matched vehicle controls inserts. Cumulative difference data was fit to a Hill equation of the form: […]
Where IEnaC is the ISC peak difference current measured at each test conjugate concentration [Test].

Compound	fold better than SPX-101 at restoring TMV in vivo ([1]; 0.25 mg/kg vs SPX-101 2 mg/kg)	restoration of TMV ([1]; nebulized 0.125, 0.25 and 0.5 mg/kg after CFTR inhibitor INH-172, vs 0.9% saline, FIG. 5)	dose needed to restore TMV ([1]; nebulized, sheep)	period over which restoration of TMV was sustained ([1]; nebulized, sheep, vs 0.9% saline)	susceptibility to cleavage by neutrophil elastase [2]	IC50 [3]
Ac-(AmilCC1)-K-(Aib)-SHLRKLRKRLL-NH2 (K[Aib]SHLRKLRKRLL-NH2; not fully specified (N-terminus); printed as Ac-(AmilCC1)-K-(Aib)-SHLRKLRKRLL-NH2; also: amiloride click conjugate (AmilCC1) at residue 1) [Conjugate 13]	approximately 8 fold	dose-dependent restoration of TMV	0.25 mg/kg	8 h	drastically reduced susceptibility to cleavage by neutrophil elastase	
CC[C@H](C)[C@H](NC(=O)[C@H](Cc1ccc(O)cc1)NC(=O)[C@@H]1C[C@@H](O)CN1C(=O)[C@H](C)NC(=O)[C@H](CC(C)C)NC(=O)[C@H](C)NC(=O)CCCCCNC(=O)[C@H](CSC1CC(=O)N(CCCCNC(N)=NC(=O)c2nc(Cl)c(N)nc2N)C1=O)NC(C)=O)C(N)=O (stereo partly drawn) [Conjugate 10, Ac-(AmilTC-C)-Ahx-ALA(Hyp)YI-NH2] (Ac-C(X2)[Ahx]ALA[Hyp]YI-NH2)						490 nM
